Measured values published in patent US11345699B2, “Apoptosis signal-regulating kinase 1 inhibitors and methods of use thereof” (Enanta Pharmaceuticals, Inc., priority 2018, dated 2022).

Biological target: ASK1 (Homo sapiens (Human), UniProt Q99683)
Assay: HTRF KinEASE Assay (TR-FRET), inhibition of ASK1
Assay type: biochemical
Details: ASK1 kinase, 100 μM ATP, 1 μM STK3 peptide substrate, compound 0 to 10 μM
Protocol: Assay HTRF® KinEASE™ Assay
ASK1 was purchased from Thermofisher (Catalogue #PV4011), ATP was purchased from Sigma (Catalogue #A7699), HTRF® KinEASE™ Assay System was obtained from Cisbio (Bedford, Mass.). ½ Area plate was purchased from Perkin Elmer (Catalogue ##6005560). HTRF® KinEASE™-STK is a generic method for measuring serine/threonine kinase activities using a time-resolved fluorescence resonance energy transfer (TR-FRET) immunoassay. The IC50 value for each compound was determined in the presence of compound (various concentration from 0 to 10 μM) and a fixed amount of ATP and peptide substrates. The test compound, 1 μM STK3 peptide substrate, and […] of ASK1 kinase are incubated with kinase reaction buffer containing 50 mM HEPES Ph 7.5, 0.01% BRIJ-35, 10 mM MgCl2, and 1 mM EGTA for 30 minutes. 100 μM ATP is added to start kinase reaction and incubated for 3 hours. The STK3-antibody labeled with Eu^3+-Cryptate and 125 nM streptavidin-XL665 are mixed in a single addition with stop reagents provided by the Cisbio kit used to stop the kinase reaction. Fluorescence is detected using an Envision Multilabeled 2014 reader from PerkinElmer. The Fluorescence is measured at 615 nm (Cryptate) and 665 nm (XL665) and a ratio of 665 nm/615 nm is calculated for each well. The resulting TR-FRET is proportional to the phosphorylation level. Staurosporine was used as the positive control. IC50 was determined by Xlfit 5.3.
By using above method, the inhibition of ASK1 was evaluated for the compounds of Formula (I). Example numbers correspond to those in Table 5.

Sequence of ASK1 (Q99683 whole entry): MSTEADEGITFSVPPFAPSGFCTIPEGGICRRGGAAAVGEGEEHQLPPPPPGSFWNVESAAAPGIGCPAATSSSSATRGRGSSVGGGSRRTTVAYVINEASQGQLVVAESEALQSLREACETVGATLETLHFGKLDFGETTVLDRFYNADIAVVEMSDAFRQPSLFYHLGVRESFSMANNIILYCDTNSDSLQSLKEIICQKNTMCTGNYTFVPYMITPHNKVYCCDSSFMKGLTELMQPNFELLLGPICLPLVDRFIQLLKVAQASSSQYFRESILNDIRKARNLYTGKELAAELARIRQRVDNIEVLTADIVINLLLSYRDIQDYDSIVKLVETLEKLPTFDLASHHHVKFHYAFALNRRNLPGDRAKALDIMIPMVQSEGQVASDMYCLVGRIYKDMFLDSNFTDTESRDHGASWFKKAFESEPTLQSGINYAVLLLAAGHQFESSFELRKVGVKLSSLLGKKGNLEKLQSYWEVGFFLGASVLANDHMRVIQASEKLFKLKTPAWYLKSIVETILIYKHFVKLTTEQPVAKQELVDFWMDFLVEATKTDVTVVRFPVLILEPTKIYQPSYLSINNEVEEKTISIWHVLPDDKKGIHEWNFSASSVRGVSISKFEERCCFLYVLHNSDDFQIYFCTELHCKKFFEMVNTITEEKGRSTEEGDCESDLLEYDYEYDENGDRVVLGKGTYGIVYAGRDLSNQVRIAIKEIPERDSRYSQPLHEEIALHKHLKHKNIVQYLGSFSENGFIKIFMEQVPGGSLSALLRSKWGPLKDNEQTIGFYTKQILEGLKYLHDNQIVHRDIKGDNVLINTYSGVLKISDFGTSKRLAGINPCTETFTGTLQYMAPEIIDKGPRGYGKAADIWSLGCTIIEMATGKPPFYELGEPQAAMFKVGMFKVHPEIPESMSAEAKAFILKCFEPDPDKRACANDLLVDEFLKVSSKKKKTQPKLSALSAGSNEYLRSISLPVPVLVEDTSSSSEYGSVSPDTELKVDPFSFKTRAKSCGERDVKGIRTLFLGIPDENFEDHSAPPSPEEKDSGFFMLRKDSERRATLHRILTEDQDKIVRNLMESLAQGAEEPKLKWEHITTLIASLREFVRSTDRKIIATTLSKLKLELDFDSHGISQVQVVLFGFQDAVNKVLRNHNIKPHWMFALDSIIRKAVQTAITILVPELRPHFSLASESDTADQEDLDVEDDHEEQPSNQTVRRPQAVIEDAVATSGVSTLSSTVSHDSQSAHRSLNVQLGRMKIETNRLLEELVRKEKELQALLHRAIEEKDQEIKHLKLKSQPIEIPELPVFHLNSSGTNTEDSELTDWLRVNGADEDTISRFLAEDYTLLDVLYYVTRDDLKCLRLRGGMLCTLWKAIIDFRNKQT

SMILES	IC50
CC(C)n1cnnc1-c1cccc(NC(=O)c2cc3c(cn2)CCN(S(=O)(=O)N(C)C)C3)n1 [Example 2, 6-(N,N-dimethylsulfamoyl)-N-(6-(4-isopropyl-4H-1,2,4-triazol-3-yl)pyridin-2-yl)-5,6,7,8-tetrahydro-2,6-naphthyridine-3-carboxamide]	10 to 100 nM
CCOC(=O)N1CCc2cc(OC)c(C(=O)Nc3cccc(-c4nncn4C(C)C)n3)cc2C1 [Example 17, ethyl 7-((6-(4-isopropyl-4H-1,2,4-triazol-3-yl)pyridin-2-yl)carbamoyl)-6-methoxy-3,4-dihydroisoquinoline-2(1H)-carboxylate]	1.25 to 10 nM
CCOC(=O)N1CCc2cc(F)c(C(=O)Nc3cccc(-c4nncn4[C@H](C)CF)n3)cc2C1 [Example 103]	1.25 to 10 nM
CC(C)n1cnnc1-c1cccc(NC(=O)c2cc3c(cn2)CCN(S(=O)(=O)C2CC2)C3)n1 [Example 13, 6-(cyclopropylsulfonyl)-N-(6-(4-isopropyl-4H-1,2,4-triazol-3-yl)pyridin-2-yl)-5,6,7,8-tetrahydro-2,6-naphthyridine-3-carboxamide]	1.25 to 10 nM
CCOC(=O)N1CCc2cc(F)c(C(=O)Nc3cccc(-c4nncn4[C@@H](C)CF)n3)cc2C1 [Example 107]	1.25 to 10 nM
COCCOC(=O)N1CCc2cc(F)c(C(=O)Nc3cccc(-c4nnnn4[C@H](C)CO)n3)cc2C1 [Example 110]	10 to 100 nM
COc1cc2c(cc1C(=O)Nc1cccc(-c3nnnn3[C@H](C)CO)n1)CN(C(=O)c1cnn(C3CC3)c1)CC2 [Example 97]	< 1.25 nM
COc1cc2c(cc1C(=O)Nc1cccc(-c3nnnn3[C@H](C)CO)n1)CN(C(=O)c1cc3ccccc3cn1)CC2 [Example 102]	1.25 to 10 nM
CC(C)n1cnnc1-c1cccc(NC(=O)c2cc3c(cn2)CCN(C(=O)OCC(F)(F)F)C3)n1 [Example 25, 2,2,2-trifluoroethyl 7-((6-(4-isopropyl-4H-1,2,4-triazol-3-yl)pyridin-2-yl)carbamoyl)-3,4-dihydro-2,6-naphthyridine-2(1H)-carboxylate]	1.25 to 10 nM
CCNC(=O)N1CCc2cc(F)c(C(=O)Nc3cccc(-c4nnnn4[C@H](C)CO)n3)cc2C1 [Example 111]	1.25 to 10 nM
COc1cc2c(cc1C(=O)Nc1cccc(-c3nnnn3[C@H](C)CO)n1)CN(c1c(N)c(=O)c1=O)CC2 [Example 98, (R)-2-(2-amino-3,4-dioxocyclobut-1-en-1-yl)-N-(6-(1-(1-hydroxypropan-2-yl)-1H-tetrazol-5-yl)pyridin-2-yl)-6-methoxy-1,2,3,4-tetrahydroisoquinoline-7-carboxamide]	1.25 to 10 nM
COc1cc2c(cc1C(=O)Nc1cccc(-c3nnnn3[C@H](C)CO)n1)CN(C(=O)C(C)(C)O)CC2 [Example 115]	< 1.25 nM
COCCOC(=O)N1CCc2cc(OC)c(C(=O)Nc3cccc(-c4nnnn4[C@H](C)CO)n3)cc2C1 [Example 96]	< 1.25 nM
CC(C)n1cnnc1-c1cccc(NC(=O)c2cc3c(cn2)CCN(C(=O)C(C)(C)C)C3)n1 [Example 1, N-(6-(4-isopropyl-4H-1,2,4-triazol-3-yl)pyridin-2-yl)-6-pivaloyl-5,6,7,8-tetrahydro-2,6-naphthyridine-3-carboxamide]	1.25 to 10 nM
COc1cc2c(cc1C(=O)Nc1cccc(-c3nncn3C(C)C)n1)CN(C(=O)OC(C)(C)C)CC2 [Example 5, tert-butyl 7-((6-(4-isopropyl-4H-1,2,4-triazol-3-yl)pyridin-2-yl)carbamoyl)-6-methoxy-3,4-dihydroisoquinoline-2(1H)-carboxylate]	10 to 100 nM
COc1cc2c(cc1C(=O)Nc1cccc(-c3nnnn3[C@H](C)CO)n1)CN(C(=O)[C@@H](O)CC(C)C)CC2 [Example 113]	< 1.25 nM

Results, then the compound that gave them:

IC50	SMILES
10 to 100 nM	C[C@H](CO)n1nnnc1-c1cccc(NC(=O)c2cc3c(cc2F)CCN(S(=O)(=O)NC2CC2)C3)n1 [Example 117]
1.25 to 10 nM	C[C@H](CO)n1nnnc1-c1cccc(NC(=O)c2cc3c(cc2F)CCN(C(=O)N2CCC2)C3)n1 [Example 135]
< 1.25 nM	COc1cc2c(cc1C(=O)Nc1cccc(-c3nncn3C(C)C)n1)CN(C(=O)CN1CCOC1=O)CC2 [Example 148]
1.25 to 10 nM	COc1cc2c(cc1C(=O)Nc1cccc(-c3nnnn3[C@H](C)CO)n1)CN(c1cnc(F)cn1)CC2 [Example 154, (R)-2-(5-fluoropyrazine-2-yl)-N-(6-(1-(1-hydroxypropan-2-yl)-1H-tetrazol-5-yl)pyridin-2-yl)-6-methoxy-1,2,3,4-tetrahydroisoquinoline-7-carboxamide]
< 1.25 nM	COc1cc2c(cc1C(=O)Nc1cccc(-c3nncn3C(C)C)n1)CN(C(=O)C[C@H](C)O)CC2 [Example 127]
10 to 100 nM	C[C@H](CO)n1nnnc1-c1cccc(NC(=O)c2cc3c(cc2F)CCN(C(=O)c2ccccn2)C3)n1 [Example 133]
100 to 1000 nM	CCN1CCc2cc(F)c(C(=O)Nc3cccc(-c4nnnn4[C@H](C)CO)n3)cc2C1 [Example 138]
1.25 to 10 nM	COc1cc2c(cc1C(=O)Nc1cccc(-c3nnnn3[C@H](C)CO)n1)CN(C(=O)OC1CCOC1)CC2 (stereo partly shown) [Example 143]
< 1.25 nM	COc1cc2c(cc1C(=O)Nc1cccc(-c3nnnn3[C@H](C)CO)n1)CN(C(=O)[C@@H]1CCOC1)CC2 [Example 142]
1.25 to 10 nM	C[C@H](CO)n1nnnc1-c1cccc(NC(=O)c2cc3c(cc2F)CCN(c2ncccn2)C3)n1 [Example 123]
10 to 100 nM	C[C@H](CO)n1nnnc1-c1cccc(NC(=O)c2cc3c(cc2F)CCN(S(=O)(=O)Nc2ccc(F)cc2)C3)n1 [Example 136]
1.25 to 10 nM	COc1cc2c(cc1C(=O)Nc1cccc(-c3nnnn3[C@H](C)CO)n1)CN(c1ncc(F)cn1)CC2 [Example 152, (R)-2-(5-fluoropyrimidin-2-yl)-N-(6-(1-(1-hydroxypropan-2-yl)-1H-tetrazol-5-yl)pyridin-2-yl)-6-methoxy-1,2,3,4-tetrahydroisoquinoline-7-carboxamide]
10 to 100 nM	CCOC(=O)N1CCc2cnc(C(=O)Nc3cccc(-c4nnnn4[C@@H]4CCC[C@@H]4O)n3)cc2C1 [Example 146]
10 to 100 nM	C[C@H](CO)n1nnnc1-c1cccc(NC(=O)c2cc3c(cc2F)CCN(S(=O)(=O)c2ccc(F)cc2)C3)n1 [Example 137]
< 1.25 nM	COc1cc2c(cc1C(=O)Nc1cccc(-c3nnnn3[C@H](C)CO)n1)CN(C(=O)CN1CCOC1=O)CC2 [Example 149]
< 1.25 nM	COc1cc2c(cc1C(=O)Nc1cccc(-c3nncn3C(C)C)n1)CN(C(=O)C(C)(C)CO)CC2 [Example 126, 2-(3-hydroxy-2,2-dimethylpropanoyl)-N-(6-(4-isopropyl-4H-1,2,4-triazol-3-yl)pyridin-2-yl)-6-methoxy-1,2,3,4-tetrahydroisoquinoline-7-carboxamide]
< 1.25 nM	COc1cc2c(cc1C(=O)Nc1cccc(-c3nncn3C(C)C)n1)CN(c1cncnc1)CC2 [Example 151, N-(6-(4-isopropyl-4H-1,2,4-triazol-3-yl)pyridin-2-yl)-6-methoxy-2-(pyrimidin-5-yl)-1,2,3,4-tetrahydroisoquinoline-7-carboxamide]
< 1.25 nM	COCCC(=O)N1CCc2cc(OC)c(C(=O)Nc3cccc(-c4nncn4C(C)C)n3)cc2C1 [Example 125]
